The structures appear in SMILES notation. ≈ marks a conversion by molar mass, not a printed value.

The conditions of the series: buffer; pH 7.4; 200.0 µM.
`COC(=O)[C@H](CC(C)C)NC(=O)N1CCC(C)CC1`: the solubility (kinetic) is above 40.6 µg/mL. As for `COc1ccc(C(C)(C)C)cc1NC(=O)CCN1C(=O)NC(C)(C)C1=O`, the figure is 52.7 µg/mL (≈ 146 µM).

`Cc1ccc(N=C2C(=O)Nc3ccc(Br)cc32)cc1`: the solubility (kinetic) was 1.1 µg/mL (≈ 3.49 µM). Turning to `Nc1ccc(S(=O)(=O)N2CCc3ccccc32)cc1`, the kinetic solubility was above 41.2 µg/mL. The compound `O=C(COc1ccccc1)N1CCCCCCC1` gave a solubility (kinetic) above 37.1 µg/mL. As to `CNc1nc(N)c([N+](=O)[O-])c(NC2CCCCC2)n1`, the kinetic solubility amounted to 1.7 µg/mL (≈ 6.38 µM). As for `O=C(CNS(=O)(=O)c1ccc(F)c(Cl)c1)NCCc1ccccc1`, the figure is 5.1 µg/mL (≈ 13.8 µM); as for `Cn1cccc1/C=N\NC(=O)C1COc2ccccc2O1` (centres undefined), above 42.8 µg/mL; as for `O=C1CCC(C(=O)NCc2ccccc2)N1` (centres undefined), 30.8 µg/mL (≈ 141 µM).

Compound `O=C(NC(=S)Nc1cccc2c(O)cccc12)c1ccco1` showed a kinetic solubility of 9.3 µg/mL (≈ 29.8 µM).

`CC1Oc2ccccc2N(CC(=O)N2CCCC2)C1=O` (centres undefined) registered a solubility (kinetic) above 41.1 µg/mL. The compound `CCN(CCNC(=O)c1ccc(C#N)cc1)c1cccc(C)c1` displayed a solubility (kinetic) above 46.1 µg/mL. As for `Cc1ccc(C(C)NC(=O)c2ccncc2)cc1C` (centres undefined), the figure is above 38.1 µg/mL; as for `O=S(=O)(Nc1cccc(S(=O)(=O)N2CCCC2)c1)c1ccccc1F`, above 57.7 µg/mL. For `Nc1nc(Nc2cccc(F)c2)nc(N2CCOCC2)c1[N+](=O)[O-]`, the solubility (kinetic) is 2.9 µg/mL (≈ 8.67 µM). As for `COCc1nnc(NC(=O)CCS(=O)(=O)c2ccccc2)s1`, the figure is above 51.2 µg/mL; as for `COCCCn1c(=NC(C)=O)c(C#N)cc2c(=O)n3cccc(C)c3nc21`, 52.3 µg/mL (≈ 143 µM). `Cc1ccccc1NC(=O)NCCCN1CCCC1=O` came in with a solubility (kinetic) above 41.3 µg/mL.

As to `Brc1ccccc1OCCCOc1cccc2cccnc12`, the kinetic solubility worked out at 1.5 µg/mL (≈ 4.19 µM). As for `Cc1cc(C(=O)CN2C(=O)NC(CC(C)C)C2=O)c(C)n1C1CC1` (centres undefined), the figure is 22.7 µg/mL (≈ 68.5 µM); as for `O=[N+]([O-])c1ccc(-c2cnc3ccccc3n2)cc1`, 0.6 µg/mL (≈ 2.39 µM); as for `COC(=O)C(NC(=O)CN1C(=O)c2ccccc2C1=O)c1ccc(O)c(OC)c1` (centres undefined), 55.8 µg/mL (≈ 140 µM). As for `Nc1nnc(SCC(=O)NC2CCCC2)s1`, the figure is above 38.8 µg/mL; as for `Cc1cc2c(c(=O)o1)C(c1ccc([N+](=O)[O-])o1)C(C#N)=C(N)O2` (centres undefined), above 47.3 µg/mL; as for `O=c1cnnc(Nc2ccccc2)[nH]1`, above 28.2 µg/mL. As for `NC(=O)C1CCN(CC(=O)Nc2ccccc2N2CCOCC2)CC1`, the figure is above 52 µg/mL; as for `Cc1cc(C(=O)CN2C(=O)C(=O)N(CCC3=CCCCC3)C2=O)c(C)n1C`, 11.5 µg/mL (≈ 31 µM).

For `CC(=O)N1CCN(C(=O)c2oc3ccccc3c2C)CC1`, the solubility (kinetic) was above 42.9 µg/mL. Next, `Nc1cccc(Oc2ccc3c(c2)C(=O)N(CC2CCCO2)C3=O)c1` (centres undefined): 41.4 µg/mL (≈ 122 µM); `Cc1ccc2c(c1)C1C3CCC(C3)C1S(=O)N2` (centres undefined): above 37.1 µg/mL. On to `Cc1ccccc1NC(=O)Cn1c(=O)oc2ccccc21`, for which the solubility (kinetic) is 14.4 µg/mL (≈ 51 µM). On to `Cc1noc(C)c1C(=O)N(CC(C)C)c1nc2ccccc2s1`, for which the solubility (kinetic) is 1.2 µg/mL (≈ 3.64 µM).

The compound `COc1ccc(C(=O)NCC2(c3ccccc3)CCOCC2)cc1` had a kinetic solubility of 47.1 µg/mL (≈ 145 µM).

Take `Cc1c(C)n(CCc2ccccc2)c2ncnc(NCCCN(C)C)c12`: the solubility (kinetic) was above 52.7 µg/mL. Next, `COc1ccc(CC2SC(N)=NC2=O)cc1` (centres undefined): above 35.4 µg/mL; `c1csc(-c2cc(N3CCCCC3)c3ccccc3n2)c1`: 1.1 µg/mL (≈ 3.74 µM); `CCCCNC(=O)C1CC(=O)N(CCc2ccccc2)C1` (centres undefined): above 43.3 µg/mL. As for `CS(=O)(=O)Nc1ccc(-c2cn3cccnc3n2)cc1`, the figure is above 43.2 µg/mL; as for `N#Cc1ccc(CSc2nnc3ccccn23)cc1`, above 39.9 µg/mL.

`Cc1ccc(S(=O)(=O)N2CCN(C(=O)CC(C)C)CC2)cc1` displayed a solubility (kinetic) above 48.7 µg/mL.

With `COC(=O)CN1C(=O)Nc2ccc(Cl)cc2C1c1ccccc1` (centres undefined), the solubility (kinetic) was 2.1 µg/mL (≈ 6.35 µM). In turn, `Cc1ccc(-c2nc(C(Cl)Cl)c3ccccc3n2)cc1` yielded a solubility (kinetic) below 0.3 µg/mL. Next, `Cn1cnnc1SCC(=O)NC1CC1`: above 31.8 µg/mL; `Cc1ccc(C2=NOC(=O)/C2=C\c2ccc(C)o2)cc1`: 36.3 µg/mL (≈ 136 µM). As for `NS(=O)(=O)c1cccc(NC(=O)CSc2nnc3n2CCCCC3)c1`, the figure is above 57.2 µg/mL; as for `Cc1ccc([N+](=O)[O-])cc1NC(=S)NCCc1ccccc1`, 39.4 µg/mL (≈ 125 µM); as for `CC1C(=O)Nc2ccccc2N1C(=O)c1ccc(Cl)cc1` (centres undefined), 27.4 µg/mL (≈ 91.1 µM). Next, `N/C(=N\OC(=O)c1ccncc1)c1cccc([N+](=O)[O-])c1`: 25.6 µg/mL (≈ 89.4 µM); `O=C(O)C1CC=CCC1C(=O)NCCCCc1ccccc1` (centres undefined): above 45.2 µg/mL; `O=C(c1ccc(F)cc1)C1CCN(Cc2ccc(F)cc2)CC1`: 36.2 µg/mL (≈ 115 µM). For `O=S(=O)(NCCN1CCCC1)c1ccc(Cl)cc1`, the solubility (kinetic) came to 40.8 µg/mL (≈ 141 µM). Next, `COc1ccc(CNc2ncnc3c2[nH]c2cc(OC)c(OC)cc23)cc1`: 1.2 µg/mL (≈ 3.29 µM); `COc1cc(/C=C/C(=O)O)cc(S(=O)(=O)N2CCCc3ccccc32)c1OC`: 45.3 µg/mL (≈ 112 µM); `COc1ccc2ccccc2c1-c1csc(N)n1`: above 38.4 µg/mL. Next, `Cc1cccn2c(=O)c(C=O)c(N3CCSCC3)nc12`: 16.2 µg/mL (≈ 56 µM). `CN(C(=O)c1cncc(Br)c1)C1C2CC3CC(C2)CC1C3` (centres undefined) registered a solubility (kinetic) of 48.1 µg/mL (≈ 138 µM). As for `COCCn1c(=S)[nH]c2ccccc21`, the figure is above 31.2 µg/mL. The compound `CC(=O)Nc1ccc(CCc2nc3ccccc3[nH]2)cc1` showed a solubility (kinetic) above 41.9 µg/mL.

`CC(=O)c1cccc(NC(=O)CN(C)S(=O)(=O)c2ccccc2)c1` had a kinetic solubility above 52 µg/mL. Next, `CCCNC(=O)COc1ncnc2sccc12`: above 37.7 µg/mL; `CCOc1ccc(C2NC(=S)NC3=C2CCc2ccccc23)cc1` (centres undefined): 10.9 µg/mL (≈ 32.4 µM). Next, `Cc1cc2ccccn2c1C(=O)c1ccccc1Br`: 8.1 µg/mL (≈ 25.8 µM); `Cc1cc(C)n2nc(C(=O)OCC(=O)c3ccccc3)nc2n1`: above 46.5 µg/mL. Next, `Cc1nnc(NC(=O)C2CC(=O)N(Cc3ccccc3)C2)s1` (centres undefined): above 47.5 µg/mL; `COc1ccc(OCC(=O)N2c3ccccc3CC2C)c([N+](=O)[O-])c1` (centres undefined): 17.3 µg/mL (≈ 50.5 µM). `O=C(CCCC(=O)N1CCCC1)N1CCCC1` yielded a solubility (kinetic) of 26.3 µg/mL (≈ 110 µM). Next, `CC(C)n1c(O)c(C=NCc2ccccc2)c(=O)[nH]c1=S`: 19.6 µg/mL (≈ 64.6 µM); `O=C(OCC(=O)N1CCCCCC1)c1cccc(Cl)c1`: above 44.4 µg/mL. Next, `N#Cc1ccccc1OCC(=O)OCC(=O)N1CCCC1`: above 43.2 µg/mL. As for `CCc1cc2c(=O)n(-c3ccccc3)c(SCC(=O)O)nc2s1`, the kinetic solubility was above 52 µg/mL. Consider `CC(C)N1C(=O)CCC1C(=O)NCc1cccs1` (centres undefined), for which the kinetic solubility is above 40 µg/mL. `CCOC(=O)C1CCCN(CC(=O)Nc2cc(C)cc(C)c2)C1` (centres undefined) gave a solubility (kinetic) of 29.3 µg/mL (≈ 92 µM). The compound `CSc1nc2sc3c(c2c(=O)[nH]1)CC(C)(C)OC3` showed a kinetic solubility of 13.9 µg/mL (≈ 49.2 µM).

Compound `CNCc1c(OCc2ccccc2)ccc2ccccc12.Cl` had a kinetic solubility of 44.9 µg/mL. Compound `COc1ccc(NC(=O)CN2CCN(C(C)=O)CC2)cc1S(=O)(=O)N1CCOCC1` registered a solubility (kinetic) above 66.1 µg/mL. Next, `COCC(=O)Nc1cc(C)cn(Cc2ccc(F)cc2)c1=O`: above 45.6 µg/mL.

Compound `CCN(CC)C(=O)C12CC3CC(CC(Br)(C3)C1)C2` had a solubility (kinetic) of 32.7 µg/mL (≈ 104 µM). In turn, `CC(C)N=C(NS(=O)(=O)c1cccs1)c1ccccc1` displayed a solubility (kinetic) above 46.3 µg/mL. `CCC(=O)N(Cc1cc(=O)[nH]c2ccccc12)c1ccccc1C` gave a solubility (kinetic) of 36.3 µg/mL (≈ 113 µM). Regarding `COCCn1c(SCC(=O)NCCCN2CCCC2=O)nc2ccccc2c1=O`, the solubility (kinetic) was above 62.8 µg/mL. With `COc1cc([N+](=O)[O-])ccc1NC(=O)Cc1ccccc1`, the kinetic solubility came out at 5.5 µg/mL (≈ 19.2 µM).

In turn, `CC(C)CC1(C)NC(=O)N(CC(=O)Nc2ccccc2Br)C1=O` (centres undefined) yielded a solubility (kinetic) above 57.3 µg/mL. As for `CC(=O)Nc1ccccc1C(F)(F)F`, the figure is 5.5 µg/mL (≈ 27.1 µM).

Consider `COc1ccc(OCC(=O)OCC(=O)Nc2cc(S(=O)(=O)N3CCOCC3)ccc2Cl)cc1`, for which the kinetic solubility came to 62.5 µg/mL (≈ 125 µM).

`CC(=O)C1=C(O)C(=O)N(c2ccc(O)cc2)C1c1ccccc1` (centres undefined) returned a kinetic solubility above 46.4 µg/mL. Take `Cc1ccc(Nc2nc(-c3ccc(F)cc3)cs2)nc1`: the kinetic solubility was below 0.2 µg/mL. Next, `Cc1ccc(C(C)C)cc1S(=O)(=O)Nc1cccnc1`: 3.5 µg/mL (≈ 12.1 µM). Next, `COc1ccc(C2NC(=O)NC(C)=C2[N+](=O)[O-])cc1OC` (centres undefined): above 44 µg/mL; `Cc1nc([N+](=O)[O-])cn1CC(O)c1ccc(-c2ccccc2)cc1` (centres undefined): 17.1 µg/mL (≈ 52.9 µM); `Cc1cc(=O)[nH]c2c(C)cc(S(=O)(=O)N3CCOCC3)cc12`: 17.3 µg/mL (≈ 53.7 µM). As for `O=C(NCCc1ccccc1)C1CC1`, the figure is above 28.4 µg/mL. On to `Cn1c(COc2ccccc2Br)nc2ccccc21`, for which the kinetic solubility is 1.4 µg/mL (≈ 4.41 µM). Next, `COc1ccc2cc(C(=O)N3CCN(c4ccc(F)cc4)CC3)[nH]c2c1`: 1.6 µg/mL (≈ 4.53 µM). In the case of `O=C(CN1CCCCC1)N1CCc2ccccc21`, the kinetic solubility was 36.6 µg/mL (≈ 150 µM). In turn, `COc1ccc(Nc2nc(N)c([N+](=O)[O-])c(NCCO)n2)cc1` had a kinetic solubility of 46.4 µg/mL (≈ 145 µM). As for `COC(=O)c1ccc(-c2noc(CN3CCCC(CNC(C)=O)C3)n2)cc1` (centres undefined), the figure is 43.3 µg/mL (≈ 116 µM); as for `Cc1ccc(CNC(=O)CCSCc2ccccc2F)cc1`, 11.8 µg/mL (≈ 37.2 µM); as for `O=C(CN1C(=O)C(=O)c2ccccc21)c1ccc(Cl)cc1`, 1.9 µg/mL (≈ 6.34 µM). As for `Cc1cccc(N2C(=O)c3ccccc3C2=O)n1`, the figure is above 35.7 µg/mL; as for `O=S(=O)(c1ccc(Cl)cc1)N1CCN(c2ncnc3sccc23)CC1`, 7 µg/mL (≈ 17.7 µM); as for `O=C1OC(N2C(=O)CC[C@H]2C(=O)NCC2CCCO2)c2ccccc21` (some centres undefined), above 51.7 µg/mL. As for `CN1CCCN(C(=O)c2ccccc2Cl)CC1`, the figure is above 37.9 µg/mL; as for `COc1ccccc1C(=O)CSc1cccc[n+]1[O-]`, 14.4 µg/mL (≈ 52.3 µM); as for `Cc1cccnc1NC(=O)C1COc2ccccc2O1` (centres undefined), 40.1 µg/mL (≈ 148 µM).

The solubility (kinetic) is the concentration staying in solution when a stock, usually in DMSO, is diluted into the medium.

The values are drawn from PubChem BioAssay AID1996.
